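Protocol summary: plate cells (96-well), add compound at 5 concentrations, incubate 48 h, interpolate endpoints linearly. GI50: concentration for 50% inhibition of growth.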 Calls of active or inactive are those of the source. Rule as the data show it: active = GI50 up to about 1.1 µM and inactive = higher.
Assays:
Assay in all cases: DTP human tumour cell line panel, 48 h
DU-145 = tested on: DU-145
NCI-H23 = tested on: NCI-H23
MDA-N = tested on: MDA-N
ACHN = tested on: ACHN
NCI-H460 = tested on: NCI-H460
786-0 = tested on: 786-0
K562 = tested on: K562
SN12C = tested on: SN12C
OVCAR-8 = tested on: OVCAR-8
T47D = tested on: T47D
CCRF-CEM = tested on: CCRF-CEM
SNB-19 = tested on: SNB-19
NCI-H226 = tested on: NCI-H226
SF-268 = tested on: SF-268
RPMI-8226 = tested on: RPMI-8226
SK-MEL-28 = tested on: SK-MEL-28
UACC-257 = tested on: UACC-257
A498 = tested on: A498
SNB-75 = tested on: SNB-75
RXF 393 = tested on: RXF 393

Measured: GI50

O=c1cc(-c2ccccc2)oc2cc(Oc3nnnn3-c3ccccc3)ccc12
inactive: DU-145 32.5 µM | NCI-H23 51.6 µM | MDA-N 41.5 µM | ACHN 4.18 µM | NCI-H460 36.8 µM | 786-0 38.7 µM | K562 32.6 µM | SN12C 60.8 µM | OVCAR-8 34.8 µM | T47D 11.7 µM | CCRF-CEM 69.2 µM | SNB-19 55.8 µM | NCI-H226 9.42 µM | SF-268 15 µM | RPMI-8226 51.4 µM | SK-MEL-28 79.1 µM | UACC-257 32.5 µM | A498 28.3 µM

Cc1cc(Cl)ccc1/N=N/C(=O)NNc1ccc(Cl)cc1C
inactive: DU-145 10.7 µM | NCI-H23 15.5 µM | MDA-N 16.3 µM | ACHN 16.1 µM | NCI-H460 14.4 µM | 786-0 16.3 µM | K562 22 µM | SNB-75 15.6 µM | SN12C 15.4 µM | OVCAR-8 13 µM | T47D 5.87 µM | CCRF-CEM 21.1 µM | SNB-19 17.6 µM | NCI-H226 16.4 µM | SF-268 16.4 µM | RPMI-8226 22.2 µM | SK-MEL-28 16.1 µM | UACC-257 17.1 µM | A498 9.06 µM

C/C(N)=C/C(=O)c1[nH]c(C(=O)O)cc1C1CCN(Cc2ccccc2)C1=O (stereo not given)
inactive: DU-145 22.1 µM | NCI-H23 22.8 µM | MDA-N 23.7 µM | ACHN 30 µM | NCI-H460 29.4 µM | 786-0 26.7 µM | K562 20.8 µM | SNB-75 23.1 µM | OVCAR-8 21.8 µM | T47D 22.8 µM | SNB-19 33.4 µM | SF-268 22.3 µM | RPMI-8226 19.6 µM | SK-MEL-28 24.3 µM | RXF 393 18.5 µM | UACC-257 28.6 µM | A498 65.3 µM

N[C@H](C(=O)O)[C@H]1ON=C(Cl)[C@@H]1O
active: CCRF-CEM 0.966 µM
inactive: DU-145 27.4 µM | NCI-H23 3.52 µM | MDA-N 2.95 µM | ACHN 10.7 µM | NCI-H460 2.76 µM | 786-0 6.61 µM | K562 1.63 µM | SNB-75 26.2 µM | SN12C 4.63 µM | OVCAR-8 2.95 µM | T47D 33.6 µM | SNB-19 5.58 µM | NCI-H226 45.1 µM | SF-268 1.5 µM | RPMI-8226 2.43 µM | SK-MEL-28 3.24 µM | RXF 393 58.3 µM | UACC-257 14.7 µM

CC1OC(OC2C(O[C@H]3CC[C@@H]4C(=CC[C@@H]5[C@@]4(C)C(=O)C[C@]4(C)[C@@H]([C@H](C)CC[C@@H](O)C(C)(C)O)CC[C@@]54C)C3(C)C)OC(CO)C(O)C2O)C(O)C(O)C1O (stereo not given in full)
inactive: DU-145 > 100 µM | NCI-H23 > 100 µM | MDA-N > 100 µM | ACHN > 100 µM | NCI-H460 > 100 µM | 786-0 > 100 µM | K562 49 µM | SNB-75 > 100 µM | SN12C > 100 µM | OVCAR-8 > 100 µM | T47D > 100 µM | CCRF-CEM 79.3 µM | SNB-19 > 100 µM | NCI-H226 > 100 µM | SF-268 > 100 µM | SK-MEL-28 > 100 µM | RXF 393 > 100 µM | UACC-257 > 100 µM | A498 > 100 µM

CC(=O)c1ccc(/N=N/c2ccc3nonc3c2N)cc1
inactive: DU-145 > 100 µM | NCI-H23 26.9 µM | MDA-N > 100 µM | ACHN > 100 µM | NCI-H460 > 100 µM | 786-0 > 100 µM | K562 > 100 µM | SNB-75 94.4 µM | SN12C > 100 µM | OVCAR-8 > 100 µM | T47D > 100 µM | CCRF-CEM > 100 µM | SNB-19 > 100 µM | NCI-H226 > 100 µM | SF-268 > 100 µM | RPMI-8226 > 100 µM | SK-MEL-28 > 100 µM | RXF 393 > 100 µM | UACC-257 > 100 µM

COC(=O)C1=COC(C)C2C[n+]3ccc4c([nH]c5ccccc54)c3CC12 (stereo not given)
inactive: DU-145 > 100 µM | NCI-H23 > 100 µM | MDA-N > 100 µM | ACHN > 100 µM | NCI-H460 36.2 µM | 786-0 > 100 µM | K562 > 100 µM | SNB-75 > 100 µM | SN12C > 100 µM | OVCAR-8 > 100 µM | T47D 36.6 µM | CCRF-CEM > 100 µM | SNB-19 > 100 µM | NCI-H226 44.9 µM | SF-268 > 100 µM | RPMI-8226 > 100 µM | SK-MEL-28 > 100 µM | UACC-257 > 100 µM | A498 > 100 µM

— ChEMBL document CHEMBL1201862, “PubChem BioAssay data set” (2004)
